Reference: patent US20240271180A1, “METHOD FOR DETECTING CONTAMINATING LIPASE ACTIVITY” (BOEHRINGER INGELHEIM INTERNATIONAL GMBH, priority 2020, published 2024)
One block for each compound: values may come before it.

How the values were obtained:
[1] = derivable from literature; cited from earlier work
[2] = system: hydrolytic activity of PPL and in BDS B and BDS E; assay: Comparison of surfactants in 4-MUD lipase assay; assay type: biochemical; settings: 10 mM CHAPS vs 0.25% Triton X-100 vs 0.25% Triton X-100 and 0.125% gum arabicum, pH 5.5
Protocol: Therefore, hydrolytic activity of PPL (0.024 mg/ml in the reaction mixture) and in BDS B and BDS E (2.4 mg/ml in the reaction mixture) was measured in ATM buffer, pH 5.5, with either 10 mM CHAPS, 0.25% Triton X-100 or 0.25% Triton X-100 and 0.125% gum arabicum. […] Gum arabicum is an emulsifier and no effect of gum arabicum on the activity has been observed in any of the experiments.

[3] = system: lipase activity in drug substance samples (Product G, B, F) and UF/DF sample of Product D; assay: 4-MUD lipase assay with or without CHAPS; assay type: biochemical; settings: 10 mM CHAPS (above CMC) vs without, 30 μM 4-MUD, pH 5.5
Protocol: First, a surfactant was tested above its CMC (critical micelle concentration). Therefore 10 mM CHAPS were added to the assay. […] The samples tested were drug substance samples comprising Product G, Product B, Product F and a sample following ultrafiltration/diafiltration of Product D, each added at 72 μL per well. […] Without being bound by theory it is hypothesized that a surfactant creates an environment that promotes lipase activity by allowing the rearrangement and opening of the lid or flap, which has been described to cover the active site (Grochulski P, Li Y, Schrag J D, et al. Protein Sci 1994; 3:82-91 and Grochulski P, Bouthillier F, Kazlauskas R J, et al. Biochemistry 1994; 33:3494-500). Therefore, a concentration of 10 mM CHAPS in the final reaction-mix was selected.

[4] = system: hydrolytic activity of an exemplary drug product sample; settings: NaCl 7.8125-1000 mM, 30 μM 4-MUD, AMT buffer without NaCl, pH 5.5
[5] = system: hydrolytic activity of a drug product sample (Product D); assay: 4-MUD lipase assay with Orlistat; assay type: biochemical; settings: Orlistat 7.3 nM-20 μM, 30 μM 4-MUD, AMT buffer pH 5.5
[6] = system: hydrolytic activity responsible for polysorbate degradation in a drug product sample (Product D); assay: PS20 degradation in drug product, HPLC-CAD; settings: 1 μM Orlistat, 0.2 mg/mL PS20, RT, pH 5.5, up to 56 days, vs control (DMSO only)
[7] = target: T1, PPL (Sus scrofa, UniProt P00591); settings: Jahn et al.; cited from earlier work
T1 sequence (P00591 1-450): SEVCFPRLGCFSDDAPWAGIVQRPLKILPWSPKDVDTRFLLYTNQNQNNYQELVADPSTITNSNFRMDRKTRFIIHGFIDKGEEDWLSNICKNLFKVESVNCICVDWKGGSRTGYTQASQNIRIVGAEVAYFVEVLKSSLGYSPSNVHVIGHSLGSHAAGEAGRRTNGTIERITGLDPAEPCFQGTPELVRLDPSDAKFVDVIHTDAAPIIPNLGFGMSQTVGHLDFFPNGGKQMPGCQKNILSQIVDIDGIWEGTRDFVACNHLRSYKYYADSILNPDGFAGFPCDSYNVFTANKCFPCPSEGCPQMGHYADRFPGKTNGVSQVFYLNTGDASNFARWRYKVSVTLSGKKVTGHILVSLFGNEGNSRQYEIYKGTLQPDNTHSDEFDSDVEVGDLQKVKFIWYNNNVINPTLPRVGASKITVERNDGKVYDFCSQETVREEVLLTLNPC

[8] = Auto-hydrolysis of 4-MU esters; assay type: physicochemical; settings: 30 μM, AMT assay buffer, 10 mM CHAPS, pH 5.5, 1800 seconds; compared to e.g. butyrate (4-MUB)

Compound: C[C@H](CCC(=O)NCCC[N+](C)(C)CC(O)CS(=O)(=O)[O-])[C@H]1CC[C@H]2[C@@H]3[C@H](O)C[C@@H]4C[C@H](O)CC[C@]4(C)[C@H]3C[C@H](O)[C@]12C (stereo partly shown) [CHAPSO, 3-([3-Cholamidopropyl)dimethylammonio]-2-hydroxy-1-propanesulfonate]
critical micelle concentration (CMC) [1]: about 8 mM

Compound: C[C@H](CCC(=O)NCCC[N+](C)(C)CCCS(=O)(=O)[O-])[C@H]1CC[C@H]2[C@@H]3[C@H](O)C[C@@H]4C[C@H](O)CC[C@]4(C)[C@H]3C[C@H](O)[C@]12C [CHAPS, 3-[(3-cholamidopropyl)dimethylammonio]-1-propanesulfonate]
hydrolytic activity compared between surfactants [2]: outperforms Triton X-100 and Triton X-100 and gum arabicum
effect on lipase hydrolysis [3]: lipase hydrolysis was increased
critical micelle concentration (CMC) [1]: about 6 mM

Compound: [Cl-].[Na+] [NaCl]
NaCl concentration at which lipase activity decreased [4]: ≥ 250 mM

Compound: CCCCCCCCCCC[C@@H](C[C@@H]1OC(=O)[C@H]1CCCCCC)OC(=O)[C@H](CC(C)C)NC=O [Orlistat]
inhibition of lipase activity [5]: inhibited lipase activity in a concentration dependent manner
degradation of PS20 [6]: reduced degradation of PS20

Compound: polyethylene glycol tert-octylphenyl ether [Triton X-100]
effect on PPL activity [7]: de-activating effect

Compound: CCCCCCCCCCCC[N+](C)(C)CCCS(=O)(=O)[O-] [Zwittergent 3-12, n-Dodecyl-N,N-dimethyl-3-ammonio-1-propanesulfonate]
critical micelle concentration (CMC) [1]: 2 to 4 mM

auto-hydrolysis [8]: better resistance to auto-hydrolysis
Compound: CCCCCCCCCC(=O)Oc1ccc2c(C)cc(=O)oc2c1 [4-MUD, 4-methylumbelliferyl decanoate]
